Reference: patent publication US10960020B2, “Modulation of PCSK9 and LDLR through DRP1 inhibition” (THE BRIGHAM AND WOMEN'S HOSPITAL, INC., priority 2016, dated 2021)

Assays:
[1] = tested on: ischemia/reperfusion injury-induced myocardial infarction; details: mice; cited from earlier work
HepG2 cells = experiment: Mitochondrial membrane potential by TMRE, HepG2; format: cell-based, human; details: HepG2, Mdivi-1 50 μM, 24 hours
Method: Mitochondrial membrane potential was assessed by TMRE reagent (Abcam) as previously described^21.

naïve wild type rodents = details: up to ten weeks after treatment, Mdivi-1 injection; cited from earlier work
[2] = tested on: PCSK9 secretion in primary human hepatocytes; experiment: Secreted PCSK9 ELISA, primary human hepatocytes; format: cell-based; details: Mdivi-1 50 μM, 24 hours
Method: Pitavastatin and T0901317 were synthesized and provided by Kowa Company, Ltd. (Tokyo, Japan), and treated at a dose of 1 μM in all experiments. DMSO (vehicle; final concentration 0.01%) and Mdivi-1 (>99.85% purity) were purchased from Sigma (St. Louis, Mo.). Mdivi-1 in DMSO vehicle was added at a concentration of 50 μM in all experiments. Mdivi-1 in DMSO vehicle was added to cell culture media in a 50 mL tube, vortexed hard for several minutes and then incubated at 37° C. prior to adding to cells to ensure the compound was fully solubilized.
HepG2 cells were obtained from ATCC (Manassas, Va.), and cultured in EMEM with L-glutamine (ATCC) medium, 1% pen/strep, with and without 10% FBS (Thermo Fisher Scientific, Waltham, Mass.) in 12-well plates (Corning, Durham, N.C.). HepG2 cells were plated at a density of 60-70% prior to treatment to avoid clumping. […] Cell viability was assessed by Trypan Blue exclusion using live/dead cell counting on a Countess™ II LT automated cell counter (Thermo Fisher Scientific).
Mouse serum PCSK9 was measured using the mouse proprotein convertase 9/PCSK9 quantikine ELISA kit (MPC900, R&D Systems, Minneapolis, Minn.), and human liver cell secreted PCSK9 using the human proprotein convertase 9/PCSK9 DuoSet ELISA (DY3888, R&D Systems), both according to manufacturers' protocols.

PCSK9 secretion = experiment: SILAC mass spectrometry of HepG2 secreted proteins: PCSK9; format: cell-based, human; details: HepG2, Mdivi-1 50 μM, 24 hours, vs vehicle
Method: To assess DRP1 involvement in protein secretion, secretome changes were quantified using stable isotope labeling by amino acids in cell culture (SILAC).
HepG2 cells were cultured on 100 mm dishes at a confluency of ˜60-70%. […] Media was prepared with DMEM (no lysine, no arginine; A14431-01, Thermo Fisher Scientific) to which L-glutamine (2 mM, Lonza, Walkersville, Md.), L-arginine HCl (0.17 mM; Sigma), either light L-lysine HCl (0.339 mM; Sigma) or heavy L-lysine 2HCl (0.339 mM; Cambridge Isotopes, Tewksbury, Mass.), 10% dialyzed FBS (Thermo Fisher Scientific), 1% pen/strep was added. Media was changed every two days, and cells were split as required. […]
The peptide sample was diluted [1/10-fold] and analyzed with the high resolution/accuracy Q Exactive™ mass spectrometer fronted with a Nanospray™ FLEX ion source, and coupled to an Easy-nLC1000 HPLC pump (Thermo Fisher Scientific). […] The peptide false discovery rate (FDR) was calculated using Percolator™ provided by Proteome Discoverer. […] Quantification of SILAC peak pairs was also done in Proteome Discoverer™ using up to the top three most abundant peptides. […] Significant changes were determined as proteins with an average value (ratio of Mdivi-1 treated/vehicle treated peak intensity) plus two standard deviations being less than the control value (vehicle treated/vehicle treated peak intensity=1). […]

cellular PCSK9 protein = experiment: Western blot, HepG2 cellular PCSK9 protein; format: cell-based, human; details: HepG2, Mdivi-1 50 μM, 24 hours
DRP1 protein = experiment: Western blot, HepG2 DRP1 protein; format: cell-based, human; details: HepG2, Mdivi-1 50 μM, 24 hours
[3] = tested on: PCSK9 secretion in HepG2 cells; experiment: Secreted PCSK9 ELISA, HepG2 media; format: cell-based, human; details: HepG2, 24 hours; Mdivi-1 50 μM, pitavastatin 1 μM, T0901317 1 μM
Method: Pitavastatin and T0901317 were synthesized and provided by Kowa Company, Ltd. (Tokyo, Japan), and treated at a dose of 1 μM in all experiments. […] Mdivi-1 in DMSO vehicle was added at a concentration of 50 μM in all experiments. Mdivi-1 in DMSO vehicle was added to cell culture media in a 50 mL tube, vortexed hard for several minutes and then incubated at 37° C. prior to adding to cells to ensure the compound was fully solubilized.

SMILES: COc1cc(-n2c(S)nc3ccccc3c2=O)c(Cl)cc1Cl [Mdivi-1, 3-(2,4-Dichloro-5-methoxyphenyl)-2,3-dihydro-2-thioxo-4(1H)-quinazolinone]
- ischemia/reperfusion injury-induced myocardial infarction [1]: reduces
- Mitochondrial function, assessed by mitochondrial membrane potential (HepG2 cells): not noticeably different
- abnormal phenotypes or cytotoxicity (naïve wild type rodents): no abnormal phenotypes or cytotoxicity
- PCSK9 secretion by ELISA [2]: reduced
- PCSK9 secretion reduction (SILAC) (PCSK9 secretion): −74%
- Cellular PCSK9 protein abundance (cellular PCSK9 protein): reduced
- DRP1 protein content (DRP1 protein): without altering
- PCSK9 secretion change by ELISA [3]: −76.1%
